“Also recorded” adds a separate entry of the source. Like-named read-outs stand apart in the source and are kept apart here.
Experiments:
caspase-1 = assay: Caspase 1 activity, Caspase-Glo 1 Inflammasome Assay; format: cell-based, human; conditions: 72 h; for Casp-1 activation (concentration): Table 4 summary; for caspase-1 activity compared to control: highest concentration tested
Protocol: Caspase 1 activity was evaluated using the Caspase-Glo® 1 1 Inflammasome Assay kit. The assay was performed according to the manufacturer's instructions. Luminescence was quantified with a Spark microplate reader.
Caspase 1 activity was evaluated using the Caspase-Glo®1 Inflammasome Assay kit. The assay was performed according to the manufacturer's instructions. Luminescence was quantified with a Spark microplate reader.

P2X7 receptor = target: T1, P2X7 receptor (Homo sapiens, UniProt Q99572); format: cell-based; conditions: 72 h; for P2X7 receptor activation (in words): JEG-Tox; for P2X7 activation (concentration): Table 4 summary
T1 construct: P2X7 receptor is expressed by human placenta and JEG-Tox; endogenous in cells; host or cells: JEG-3 human trophoblast cell line (ATCC HTB-36) cultured in 2.5% FBS (JEG-Tox)
T1 sequence (Q99572 1-595): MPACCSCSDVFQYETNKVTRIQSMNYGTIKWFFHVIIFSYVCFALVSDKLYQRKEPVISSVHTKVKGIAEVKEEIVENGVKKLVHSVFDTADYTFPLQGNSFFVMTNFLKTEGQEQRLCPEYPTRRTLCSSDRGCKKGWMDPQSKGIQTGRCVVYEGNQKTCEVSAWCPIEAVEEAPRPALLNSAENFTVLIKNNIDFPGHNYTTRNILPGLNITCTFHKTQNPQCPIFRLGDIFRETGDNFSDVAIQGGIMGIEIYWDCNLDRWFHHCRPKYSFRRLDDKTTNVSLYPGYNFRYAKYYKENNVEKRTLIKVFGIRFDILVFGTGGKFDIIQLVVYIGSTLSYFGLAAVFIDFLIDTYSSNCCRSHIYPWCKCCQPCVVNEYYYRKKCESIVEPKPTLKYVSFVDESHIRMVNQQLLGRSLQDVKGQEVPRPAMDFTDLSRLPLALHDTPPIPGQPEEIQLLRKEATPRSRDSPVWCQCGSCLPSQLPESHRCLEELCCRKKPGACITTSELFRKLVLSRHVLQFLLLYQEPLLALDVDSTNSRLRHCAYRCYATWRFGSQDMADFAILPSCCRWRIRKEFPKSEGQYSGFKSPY
Protocol: P2X7 cell death receptor activation was evaluated using the YO-PRO-1® assay (Rat et al. J Biol Methods. 2017 Jan. 20; 4(1):e64). YO-PRO-1® probe only enters into cells after P2X7 receptor activation-induced pore opening, and binds to DNA, emitting fluorescence. A 1 mM YO-PRO-1 stock solution was diluted at 1/500 in PBS just before use and distributed into the wells of the microplate. After a 10-minute incubation time at room temperature, fluorescence signal was read (λex=491 nm, λem=509 nm) with a Spark cytofluorometer.
P2X7 cell death receptor activation was evaluated using the YO-PRO-1® assay (Rat et al., 2017). YO-PRO-1® probe only enters into cells after P2X7 receptor activation-induced pore opening, and binds to DNA, emitting fluorescence. A 1 mM YO-PRO-1 stock solution was diluted at 1/500 in PBS just before use and distributed into the wells of the microplate. After a 10-minute incubation time at room temperature, fluorescence signal was read (λex=485 nm, λem=531 nm) with a Spark cytofluorometer.

[1] = Neutral Red cell viability assay on JEG-Tox cells, 72 h; format: cell-based, human; conditions: human
Protocol: (§1) The JEG-3 human trophoblast cell line, derived from a human placental carcinoma, was obtained from the American Type Culture Collection (ATCC HTB-36). Cells were cultured in minimum Essential medium, supplemented with 10% fetal bovine serum (FBS), 1% L-glutamine, 0.5% penicillin and streptomycinin, in 75 cm2 polystyrene flasks. Cell cultures were maintained in a cell culture incubator (37° C., saturated humidity, 5% CO2). When the JEG-3 cells reached subconfluency, they were detached using trypsin-EDTA and counted. The cellular suspension was diluted and seeded either in 96-well microplates at a cellular density of 80,000 cells/mL or in 6-well microplates at 120,000 cells/mL, then kept at 37° C. for 24 h. The cells were incubated with EDCs according to example 1.
(§2) Cell viability was evaluated using the Neutral Red assay. The Neutral Red solution at 0.4% (m/v in water) was diluted in cell culture medium to obtain a working concentration of 50 μg/mL. […] The cells were then rinsed with PBS and lysed with a solution of acetic acid-ethanol (ethanol 50.6%, water 48.4% and acetic acid 1%). After homogenization, the fluorescence signal was scanned (λexc=540 nm, λem=600 nm) with a Tecan Spark microplate reader (Mannedorf, Switzerland). The cell viability was calculated compared to the control cells (the fluorescence of the control cells as 100% viability).

JEG-Tox cells [2] = assay: as above; format: cell-based, human; conditions: 72 h
Protocol: as §1, §2

JEG-Tox cells [3] = assay: Chromatin condensation (Hoechst 33342) as a hallmark of apoptosis; format: cell-based, human; conditions: 24 h
Protocol: The UV fluorescent probe Hoechst 33342 enters living and apoptotic cells, intercalating into DNA. The fluorescent signal is proportional to chromatin condensation in apoptosis. The cells were incubated with Hoechst 33342 at 10 μg/mL for 30 minutes at room temperature. The fluorescence signal was read (λex=360 nm, λem=460 nm) using a cytofluorometer (Spark).

caspase-9 = assay: Caspase 9 activity, Caspase-Glo 9 Assay; format: cell-based, human; conditions: 10 μM
Protocol: Caspase 9 activity was evaluated using the Caspase-Glo® 9 Assay kit. The assay was performed according to the manufacturer's instructions. Luminescence was quantified with a Spark microplate reader.

JEG-3 cells = assay: Neutral red cell viability of JEG-3 cells with SLS or PFOA in 10% or 2.5% FBS; conditions: for living cells: 2.5% FBS
Protocol: The choriocarcinoma-derived JEG-3 cell-line (ATCC® HTB-36™, Manassas, VA, USA), was grown as recommended by ATCC: Minimum Essential Medium Eagle's medium supplemented with 10% fetal bovine serum, 2 mM of glutamine, 50 IU/mL of penicillin and 50 IU/mL of streptomycin. Cells were detached using trypsin, counted, and then seeded at 80,000 cells/mL in 96-well microplates (200 μL by well) and Nunc® Lab-Tek® II Chamber Slide™ system for immunostaining.
Cells were incubated with sodium lauryl sulfate or perfluorooctanoic acid diluted in culture medium supplemented with either 2.5% or 10% FBS. After 24 hours, cell viability was evaluated using the neutral red assay. Neutral Red solution at 0.4% in water was diluted in culture medium with a ratio of 1:79 to give a final concentration of 50 μg/mL. Neutral Red was distributed in the plates for a 3-hour incubation time at 37° C. The cells were then rinsed with PBS to remove any remaining unincorporated dye. The dye was then released from the cells using a lysis solution (1% acetic acid, 50% ethanol and 49% H2O) and the fluorescence was measured (λex=540 nm, λem=600 nm) using Spark microplate fluorometer (Tecan, Mannedorf, Switzerland).

[4] = JEG-Tox cells, 50 μM, 72 h, read-out: cell viability
[5] = Table 4 summary, loss of viability >= 30% counted as cytotoxic

SMILES	effect on caspase-1 activity (caspase-1)	Casp-1 activation (concentration) (caspase-1)	P2X7 receptor activation compared to control (P2X7 receptor; 10 μM)	P2X7 receptor activation (in words) (P2X7 receptor)	P2X7 activation (concentration) (P2X7 receptor)	cytotoxicity (concentration) (JEG-Tox cells [2]; [5])	concentration at which chromatin condensation was initiated (JEG-Tox cells [3])	other results
CC12CCC(/C(=C/c3ccccc3)C1=O)C2(C)C (stereo not drawn) [3-benzylidene camphor]	no effect	no	1.50 fold change	triggered P2X7 receptor activation	1 to 10 µM	50 µM	–	viability at 72 h, 50 µM [1, 4]: 70%
Clc1ccc(C(c2ccc(Cl)cc2)C(Cl)(Cl)Cl)cc1 [4,4′DDT]	–	–	–	–	–	–	2 µg/mL	–
CCC(C)(C)c1ccc(O)cc1 [4-tert-amylphenol]	activated caspase-1	50 µM	–	triggered P2X7 receptor activation	0.1 to 50 µM	no	–	caspase-1 activity compared to control (caspase-1): 1.5 fold change; P2X7 receptor activation compared to control (P2X7 receptor; 50 μM): 1.36 fold change; concentration up to which no loss of cell viability was observed (JEG-Tox cells [2]): up to 50 μM
CCCCC(CC)COC(=O)c1ccccc1C(=O)OCC(CC)CCCC (stereo not drawn) [DEHP, Di(2-ethylhexyl)phtalate]	no effect	no	1.16 fold change	triggered P2X7 receptor activation	10 µM	50 µM	–	viability at 72 h, 50 µM [1, 4]: 25%; caspase-9 activity compared to control (caspase-9): 1.20 fold change
CCCCCCCCCCCCOS(=O)(=O)[O-].[Na+] [SLS, sodium lauryl sulfate]	–	–	–	–	–	–	–	living cells (JEG-3 cells; 30 μg/mL, 24 h): 37%; living cells (JEG-3 cells; 50 μg/mL, 24 h): 10%; effect on JEG-3 cell viability (JEG-3 cells; 10% FBS, all tested concentrations (up to 50 μg/mL), 24 h, sulfate): no effect; also recorded: did not observe any cell death; concentration inducing a dramatic loss of cell viability (JEG-3 cells; diluted in 2.5% FBS): 30000 ng/mL
CCCCOC(=O)c1ccccc1C(=O)OCc1ccccc1 [benzyl butyl phthalate]	no effect	no	1.36 fold change	triggered P2X7 receptor activation	0.1 to 10 µM	50 µM	–	viability at 72 h, 50 µM ([1]; 50 μM, 72 h, read-out: cell viability): 40%; caspase-9 activity compared to control (caspase-9): 1.28 fold change
CCCCOC(=O)c1ccccc1C(=O)OCCCC [dibutyl phthalate]	no effect	no	1.6 fold change	triggered P2X7 receptor activation	0.01 to 50 µM	–	–	viability at 72 h, 50 µM [1]: 55%; cytotoxicity (concentration) (JEG-Tox cells [2]; human): 50 µM
CC/C(=C(/CC)c1ccc(O)cc1)c1ccc(O)cc1 [diethylstilbestrol]	activated caspase-1	7.5 µM	–	triggered P2X7 receptor activation	7.5 µM	15 µM	–	caspase-1 activity compared to control (caspase-1): 1.84 fold change; P2X7 receptor activation compared to control (P2X7 receptor; 7.5 μM): 1.48 fold change; viability at 72 h, 15 µM ([1]; JEG-Tox cells, 15 μM, 72 h): 40%
CCO [ethanol]	–	–	–	–	–	–	2.5%	–
OCCOc1ccccc1 [phenoxyethanol]	–	–	–	–	–	–	0.15%	–
CCCOC(=O)c1ccc(O)cc1 [propylparaben]	activated caspase-1	100 µM	–	triggered P2X7 receptor activation	1 to 100 µM	–	20 µg/mL	caspase-1 activity compared to control (caspase-1): 2.7 fold change; P2X7 receptor activation compared to control (P2X7 receptor; 100 μM): 1.69 fold change; viability at 72 h, 100 µM [1]: 87%
CCOP(=S)(OCC)Oc1cnc2ccccc2n1 [quinalphos]	–	–	–	–	–	–	0.3 µg/mL	–
Oc1cc(Cl)ccc1Oc1ccc(Cl)cc1Cl [triclosan]	no effect	No	–	triggered P2X7 receptor activation	1 µM	10 µM	–	P2X7 receptor activation compared to control (P2X7 receptor; 1 μM): 1.13 fold change; viability at 72 h, 10 µM ([1]; JEG-Tox cells, 10 μM, 72 h): 60%
